Data taken from article PMC7918049, “Juncaceae Species as Promising Sources of Phenanthrenes: Antiproliferative Compounds from Juncus maritimus Lam” (Molecules, 2021).
Where two headings read alike, the source gives them in different places.

Experiments:
[1] = test system: HeLa human cervix carcinoma cells; assay: MTT antiproliferative assay, HeLa; assay type: cell-based; conditions: 72 h, mean of four parallel experiments, read-out: IC50 (µM) ± SD HeLa
Experimental: (§1) Breast cancer cell line MCF-7 (ATCC®® HTB-22) and the drug-resistant subline of the human breast cancer MCF-7 (ECACC 86012803; KCR) were purchased from LGC Promochem (Teddington, UK). Both cell lines were cultured in Eagle’s Minimal Essential Medium (EMEM, containing 4.5 g/L glucose) supplemented with a non-essential amino acid mixture, a selection of vitamins, and 10% heat-inactivated fetal bovine serum. In every third passage, 0.56 µg/mL doxorubicin was added to the medium in order to maintain the ABCB1 (P-glycoprotein) expression in KCR cells. A2780 human ovarian cancer cell line (ECACC European Collection of Authentical Cell Culture, Sigma Cat. no. 93112519) and the cisplatin-resistant human ovarian cancer cell line A2780cis (ECACC European Collection of Authentical Cell Culture, Sigma Cat. no. 93112517) were purchased from Merck KGaA (Darmstadt, Germany). The human ovarian cancer cell lines were cultured in RPMI 1640 medium supplemented with 10% heat-inactivated fetal bovine serum. The RPMI 1640 medium of the cisplatin-resistant cell line A2780 was supplemented with 1 µM cisplatin. HeLa (ATCC® CCL-2™) human cervix carcinoma, HTB-26 breast adenocarcinoma, T-47D (ATCC® HTB-133™) ductal carcinoma, and MRC-5 human embryonal lung fibroblast cell lines (ATCC® CCL-171) were purchased from LGC Promochem (Teddington, UK). The cells were cultured in Eagle’s Minimal Essential Medium (EMEM, containing 4.5 g/L glucose) supplemented with a non-essential amino acid mixture, a selection of vitamins, and 10% heat-inactivated fetal bovine serum. HTB-26 cell line was cultured in RPMI 1640 medium supplemented with 10% heat-inactivated fetal bovine serum. T-47D cells were cultured in RPMI 1640 medium supplemented with 10% heat-inactivated fetal bovine serum, 2 mM L-glutamine, 1 mM Na-pyruvate, and 100 mM Hepes. All of the cells were incubated at 37 °C, in a 5% CO2, 95% air atmosphere.
(§2) The antiproliferative effect of the compounds was determined on the human breast (MCF-7, KCR, T-47D, HTB-26), cervical (HeLa), and ovarian (A2780, A2780cis) cancer cells, and on MRC-5 (human embryonic lung fibroblast) cell line. The adherent cells were cultured in 96-well flat-bottomed microtiter plates, using EMEM supplemented with 10% heat-inactivated fetal bovine serum or RPMI 1640 supplemented with 10% heat-inactivated fetal bovine serum, respectively. The density of the cells was adjusted to 6 × 10^3 cells in 100 μL per well, the cells were seeded for 24 h at 37 °C, 5% CO2, then the medium was removed from the plates and fresh medium (100 μL per well) was added to the cells. The effects of increasing concentrations of compounds on cell proliferation were tested in 96-well flat-bottomed microtiter plates. The compounds were diluted in the appropriate medium, the dilutions of compounds were performed in separate plates and then added to the cells. The starting concentration of the compounds was 100 μM, and two-fold serial dilution was performed (concentration range: 100-0.19 μM). The culture plates were incubated at 37 °C for 72 h; at the end of the incubation period, 20 μL of MTT (thiazolyl blue tetrazolium bromide, Sigma) solution (from a stock solution of 5 mg/mL) was added to each well. After incubation at 37 °C for 4 h, 100 μL of sodium dodecyl sulfate (SDS) (Sigma) solution (10% in 0.01 M HCI) were added to each well and the plates were further incubated at 37 °C overnight. Cell growth was determined by measuring the optical density (OD) at 540/630 nm with Multiscan EX ELISA reader (Thermo Labsystems, Cheshire, WA, USA). Mean IC50 values were obtained by best fitting the dose-dependent inhibition curves in GraphPadPrism5 program (GraphPad Software version 5.00 for Windows, San Diego, CA, USA) from four parallel experiments for each cell line. Results are expressed in terms of IC50, defined as the inhibitory dose that reduces the proliferation of the cells exposed to the tested compounds by 50% [14].

[2] = test system: HTB-26 breast adenocarcinoma cells; assay: MTT antiproliferative assay, HTB-26; assay type: cell-based, human; conditions: HTB-26, mean of four parallel experiments, read-out: IC50 (µM) ± SD HTB-26
Experimental: as §1, §2

[3] = test system: T-47D ductal carcinoma cells; assay: MTT antiproliferative assay, T-47D; assay type: cell-based, human; conditions: 72 h, mean of four parallel experiments, read-out: IC50 (µM) ± SD T-47D
Experimental: as §1, §2

[4] = test system: A2780 human ovarian cancer cell line; assay: MTT antiproliferative assay, A2780; assay type: cell-based; conditions: 72 h, A2780, mean of four parallel experiments, read-out: IC50 (µM) ± SD A2780
Experimental: as §1, §2

[5] = test system: cisplatin-resistant human ovarian cancer cell line A2780cis; assay: MTT antiproliferative assay, A2780cis; assay type: cell-based; conditions: 72 h, mean of four parallel experiments, read-out: IC50 (µM) ± SD A2780cis
Experimental: as §1, §2

[6] = test system: Breast cancer cell line MCF-7; assay: MTT antiproliferative assay, MCF-7; assay type: cell-based, human; conditions: MCF-7, mean of four parallel experiments, read-out: IC50 (µM) ± SD MCF-7
Experimental: as §1, §2

[7] = test system: KCR, drug-resistant subline of the human breast cancer MCF-7; assay: MTT antiproliferative assay, KCR; assay type: cell-based; conditions: mean of four parallel experiments, read-out: IC50 (µM) ± SD KCR
Experimental: as §1, §2

[8] = test system: MRC-5 human embryonal lung fibroblast cell line; assay: MTT antiproliferative assay, MRC-5 normal cells; assay type: cell-based; conditions: for IC50: MRC-5 normal fibroblasts, mean of four parallel experiments, read-out: IC50 (µM) ± SD MRC-5
Experimental: as §1, §2

[9] = test system: HeLa, HTB-26, T-47D, A2780, A2780cis, MCF-7, KCR and MRC-5 cell lines; assay: MTT antiproliferative assay, all cell lines investigated (overall statements); assay type: cell-based, human; conditions: 72 h, all cell lines tested
Experimental: Breast cancer cell line MCF-7 (ATCC®® HTB-22) and the drug-resistant subline of the human breast cancer MCF-7 (ECACC 86012803; KCR) were purchased from LGC Promochem (Teddington, UK). Both cell lines were cultured in Eagle’s Minimal Essential Medium (EMEM, containing 4.5 g/L glucose) supplemented with a non-essential amino acid mixture, a selection of vitamins, and 10% heat-inactivated fetal bovine serum. In every third passage, 0.56 µg/mL doxorubicin was added to the medium in order to maintain the ABCB1 (P-glycoprotein) expression in KCR cells. A2780 human ovarian cancer cell line (ECACC European Collection of Authentical Cell Culture, Sigma Cat. no. 93112519) and the cisplatin-resistant human ovarian cancer cell line A2780cis (ECACC European Collection of Authentical Cell Culture, Sigma Cat. no. 93112517) were purchased from Merck KGaA (Darmstadt, Germany). The human ovarian cancer cell lines were cultured in RPMI 1640 medium supplemented with 10% heat-inactivated fetal bovine serum. […]
The antiproliferative effect of the compounds was determined on the human breast (MCF-7, KCR, T-47D, HTB-26), cervical (HeLa), and ovarian (A2780, A2780cis) cancer cells, and on MRC-5 (human embryonic lung fibroblast) cell line. […] Cell growth was determined by measuring the optical density (OD) at 540/630 nm with Multiscan EX ELISA reader (Thermo Labsystems, Cheshire, WA, USA). […]

Zymoseptoria tritici = test system: Zymoseptoria tritici; parameters: method as in PMID 28484977; conditions: cited from earlier work
[10] = test system: hepatitis C (HCV) replication; parameters: method as in PMID 30842319; conditions: cited from earlier work

Row | Structure (SMILES) | IC50 ([1]; Homo sapiens) [µM] | IC50 ([2]; Homo sapiens, HTB26, 72 h) [µM] | IC50 ([3]; Homo sapiens, T47D) [µM] | IC50 ([4]; Homo sapiens) [µM] | IC50 ([5]; Homo sapiens) [µM] | IC50 ([6]; Homo sapiens, MCF7, 72 h) [µM] | IC50 ([7]; Homo sapiens, MCF7, 72 h) [µM] | selectivity: effect on MRC-5 normal lung fibroblasts compared to cancer cell lines (in words) ([8]; 72 h, MRC-5 versus cancer cell lines) | IC50 ([8]; Homo sapiens, MRC5, 72 h) [µM] | IC50 [5] [µM] | IC50 ([6]; 72 h) [µM] | antiproliferative activity across the cell lines investigated (in words) [9] | in vitro antifungal activity against Zymoseptoria tritici (in words) (Zymoseptoria tritici) | IC50 [1] [µM] | IC50 ([2]; 72 h) [µM] | IC50 [3] [µM] | IC50 [4] [µM] | IC50 ([7]; 72 h) [µM] | IC50 ([8]; 72 h) [µM] | inhibition of hepatitis C (HCV) replication (in words) [10]
1 | C=Cc1cc(O)c(CO)c2c1-c1ccc(O)c(C)c1CC2 [Compound 1, maritin A] | 57 ± 1.3 | 48.7 ± 1.6 | 12.8 ± 0.9 | 21.5 ± 0.4 | 40.1 ± 0.4 | 34.7 ± 3 | 57.6 ± 0.7 | less antiproliferative effect on MRC-5 normal lung fibroblasts compared to the other cancer cell lines | 75.4 ± 1.8 | – | – | – | – | – | – | – | – | – | – | –
2 | C=Cc1c(C)ccc2c1CCc1c-2ccc(O)c1C [Compound 2, maritin B] | 11 ± 0.9 | > 100 | > 100 | > 100 | > 100 | 97 ± 0.3 | > 100 | – | > 100 | – | – | – | – | – | – | – | – | – | – | –
3 | Cc1c(O)cc2ccc3c(C)c(O)cc4c3c2c1C(O)C4 (stereo not drawn) [Compound 3, maritin C] | 43.2 ± 0.7 | 35.9 ± 1.5 | 17 ± 0.6 | 23.7 ± 0.1 | < 20 | – | > 100 | – | 15 ± 0.2 | 18.6 ± 0.1 | – | – | – | – | – | – | – | – | – | –
4 | C=Cc1cc(O)cc2c1-c1ccc(Oc3cc4c(c(C)c3O)CCc3cc(O)cc(C=C)c3-4)c(C)c1CC2 [Compound 4, maritin D] | 22.5 ± 1.2 | 25.1 ± 0.3 | 9.1 ± 0.4 | 14.1 ± 1.3 | < 20 | < 20 | 16.2 ± 0.6 | – | 17.1 ± 3.1 | 13.3 ± 0.1 | 14.2 ± 0.3 | substantial antiproliferative activity against all cell lines investigated | – | – | – | – | – | – | – | –
5 | C=Cc1c(C)c(O)cc2c1-c1ccc(O)c(C)c1CC2 [Compound 5, juncusol] | 0.5 | – | 25 ± 0.4 | – | – | – | – | – | – | – | – | – | – | – | – | – | – | – | – | –
6 | C=Cc1cc(O)cc2c1-c1ccc(O)c(C)c1CC2 [Compound 6, effusol] | 2.3 ± 0.7 | 57 ± 2.73 | – | – | – | – | – | – | – | – | – | – | significant in vitro antifungal activity | – | – | – | – | – | – | –
7 | Cc1c(O)ccc2c1CCc1cc(O)cc(C=O)c1-2 [Compound 7, 2,7-dihydroxy-1-methyl-5-aldehyde-9,10-dihydrophenanthrene] | 24.7 ± 0.5 | 85.3 ± 4.5 | 26.6 ± 1.1 | 30 ± 3.6 | 32.3 ± 2.3 | 38 ± 2 | 70.6 ± 3.1 | – | 71.1 ± 1.3 | – | – | – | – | – | – | – | – | – | – | –
8 | C=Cc1cc(O)c(C)c2c1-c1ccc(O)c(C)c1CC2 [Compound 8, 2,7-dihydroxy-1,8-dimethyl-5-vinyl-9,10-dihydrophenanthrene] | > 100 | > 100 | 57 ± 7.1 | > 100 | > 100 | 69.5 ± 1.7 | > 100 | – | > 100 | – | – | – | – | – | – | – | – | – | – | –
9 | C=Cc1cc(C)cc2c1-c1ccc(O)c(C)c1CC2 [Compound 9, juncunol] | 76.7 ± 1.8 | 75 ± 5 | 41.4 ± 5.8 | 43.5 ± 1.1 | 52.8 ± 2.4 | 45.7 ± 2.4 | 68.4 ± 2.5 | – | 78.4 ± 3.7 | – | – | – | – | – | – | – | – | – | – | –
10 | C=Cc1cc(O)cc2c1-c1cc(-c3cc4c(c(C)c3O)CCc3cc(O)cc(C=C)c3-4)c(O)c(C)c1CC2 [Compound 11, effususin A] | 25.2 ± 0.6 | 24.7 ± 2.1 | 6.2 ± 0.1 | 25.6 ± 2.4 | < 20 | < 20 | 19.6 ± 0.9 | – | 20.1 ± 1.6 | 16.3 ± 0.3 | – | substantial antiproliferative activity against all cell lines investigated | – | – | – | – | – | – | – | –
11 | N.N.[Cl][Pt][Cl] [cisplatin, reference compound] | – | – | – | – | – | – | – | – | – | 7.3 ± 0.2 | 0.9 | – | – | 2.3 ± 0.1 | 20.1 ± 2.3 | 5.9 ± 0.1 | 3.6 ± 0.3 | 6.5 ± 0.3 | 0.6 | –
12 | C=Cc1c(C)c(O)cc2ccc3c(C)c(O)ccc3c12 [dehydrojuncusol] | – | – | – | – | – | – | – | – | – | – | – | – | – | – | – | – | – | – | – | novel inhibitor of hepatitis C (HCV) replication
